The target of the assay is GABA-A receptor (Rattus norvegicus). Description: Affinity for gamma-aminobutyric-acid A receptor measured by its ability to displace [3H]gabazine antagonist from rat brain preparations.

What is called IC50 is the concentration at which inhibition is half-maximal. In turn, `Cc1cc(-c2ccccc2)nn(CCCC(=O)O)c1=N` registered an IC50 of 800 nM.

Molecule `N=c1ccc(-c2ccsc2)nn1Cc1cc(=O)[nH]o1` displayed an IC50 of 88 nM.

Values taken from BindingDB's records for doi:10.1021/jm00100a015 (Centre De Neurochimie Du Cnrs, 1992).
